Counter-ions that a name gives are not always drawn.
What was measured:
[1] = test system: Cerebral blood flow after complete cerebral ischemia-reperfusion in dogs; assay: Effect on cerebral blood flow and cortical water content after complete cerebral ischemia-reperfusion in dogs; assay type: in vivo, dog (adult mongrel); settings: for Decrease rate of γ-CBF 3 hours after reperfusion: control 44.3±1.4%
Procedure: Fourteen adult mongrel dogs were anesthetized with a combination of α-chloralose and urethane. Polyethylene catheters were introduced into the femoral artery and vein. Systemic blood pressure was measured through the cannulated femoral artery with an electromanometer. Heart rate was recorded with a cardiotachometer. The regional cerebral blood flow (γ-CBF) was measured using a thermal diffusion flow probe incorporating a Peltier stack. The animals were subjected to positive-pressure ventilation with room-air. A thoracotomy was performed in the third right intercostal space. […] Occlusion was maintained for 10 minutes. After reperfusion, all physiological variables were continuously recorded for 3 hours. After 3 hours of reperfusion, animals were sacrificed. The regional cerebral cortex was removed, weighed and then dried (48 hours at 120° C.) to remove water content. The test drugs were given intravenously 5 minutes before ischemia.

5-lipoxygenase = target: T1, 5-lipoxygenase (Rattus norvegicus, UniProt P12527); assay: Inhibitory action on 5-lipoxygenase (5-HETE formation in RBL-1 cells); assay type: cell-based; settings: read-out: Inhibition rate (%) of 5-HETE formation
T1 construct: endogenous in cells; host or cells: RBL-1 (rat basophilic leukemia cells)
T1 sequence (P12527 1-673): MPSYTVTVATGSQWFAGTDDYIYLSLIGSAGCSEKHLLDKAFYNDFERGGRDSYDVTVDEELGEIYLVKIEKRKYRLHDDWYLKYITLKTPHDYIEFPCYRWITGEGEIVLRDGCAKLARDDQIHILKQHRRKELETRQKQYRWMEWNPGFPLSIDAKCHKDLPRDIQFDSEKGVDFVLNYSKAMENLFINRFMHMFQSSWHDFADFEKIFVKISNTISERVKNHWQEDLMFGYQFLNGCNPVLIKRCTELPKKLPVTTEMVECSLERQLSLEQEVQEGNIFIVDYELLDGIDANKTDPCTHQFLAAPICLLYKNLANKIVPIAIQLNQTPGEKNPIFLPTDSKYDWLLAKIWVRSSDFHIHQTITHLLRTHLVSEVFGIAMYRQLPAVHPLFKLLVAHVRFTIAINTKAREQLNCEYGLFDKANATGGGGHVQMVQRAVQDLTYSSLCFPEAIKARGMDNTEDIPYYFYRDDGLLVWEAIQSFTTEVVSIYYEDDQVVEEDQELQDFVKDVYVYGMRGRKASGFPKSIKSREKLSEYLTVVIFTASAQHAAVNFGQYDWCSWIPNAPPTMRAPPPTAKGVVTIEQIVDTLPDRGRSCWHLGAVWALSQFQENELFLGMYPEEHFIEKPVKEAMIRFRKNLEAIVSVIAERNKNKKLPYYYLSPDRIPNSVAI
Procedure: RBL-1 cells (rat basophilic leukemia cells) of 10^7 were suspended in 0.9 ml of MCM (mast cell medium). […] The mixture was incubated at 37° C. for 5 minutes. Then, 0.1 ml of MCM containing 50 μg of arachidonic acid and 10 μg of calcium ionophore A-23187 was added and further the mixture was incubated at 37° C. for 15 minutes. After the reaction, 1 ml of ethanol was added, well shaken and subjected to high performance liquid chromatography to determine 5-HETE. The absorption at 240 nm due to 5-HETE was measured by an ultraviolet abosorption monitor. The inhibition rate of 5-HETE formation is represented by (1-b/a)×100, wherein a is the peak height or area in the absence of the compound (I) and b is that in the presence of the compound (I).

[2] = test system: Behavior change due to the spinal intrathecal injection of ferrous chloride in mice; assay: Behavior change due to spinal intrathecal injection of ferrous chloride in mice; assay type: in vivo, Slc:ICR mouse; settings: 100 mg/kg p.o., 30 min before i.t. ferrous chloride; for Average score, 100 mg/kg dose: scale 0 (normal) to 5 (death); for Inhibition rate (%): vs saline
Procedure: In male Slc : ICR mouse of 5 weeks age 10 mice per group were used. […] The evaluation point of behavior change was scored according to the following criterion.
The inhibition rate was shown based on the evaluation point under the above criterion. The test compound was orally administered 30 minutes before the i.t. injection of ferrous chloride.

[3] = test system: lipoperoxide formation in rat's brain homogenate; assay: Inhibitory action for lipoperoxide formation in rat's brain homogenate (thiobarbituric acid method); assay type: biochemical; settings: read-out: IC50 (M) × 10^-7
Procedure: According to the method by Suno et al. (Japan J. Pharmacol., 35, 196(1984) , the concentration of the compound necessary for 50% inhibition of lipoperoxide formation in rat's brain homogenate was determined by examining the lipoperoxide formation using the thiobarbituric acid method. The results obtained are shown in Table 3.

Compound	Effect on decrease in γ-CBF ([1]; 1 mg/kg, i.v., 3 hours after reperfusion)	Water Content (%) of cerebral cortex ([1]; 1 mg/kg, i.v., 3 hours after reperfusion, control 79.81 ± 0.21)	Decrease rate of γ-CBF 3 hours after reperfusion ([1]; 1 mg/kg, i.v.)	Effect on post-ischemia hypoperfusion in γ-CBF ([1]; 10 mg/kg, i.v.)	Decrease rate of γ-CBF 3 hours after reperfusion ([1]; 10 mg/kg, i.v.)	Effect on increase in water content in the cerebral cortex ([1]; 3 hours after reperfusion)	Time after reperfusion at which γ-CBF recovered to the pre-occlusion level ([1]; i.v., 5 minutes before ischemia)	γ-CBF immediately after reperfusion ([1]; i.v., 5 minutes before ischemia, vs control group)	inhibition at 1 µM (5-lipoxygenase; 10^-6 M)	inhibition at 0.1 µM (5-lipoxygenase; 10^-7 M)	inhibition at 0.01 µM (5-lipoxygenase; 10^-8 M)	Average score, 100 mg/kg dose [2]	Inhibition rate (%) [2]	IC50 [3]
Cc1ccc(-c2nc3c(s2)NCCCC3)cc1N [Example 106, 2-(3-Amino-4-methylphenyl)-5,6,7,8-tetrahydro-4H-thiazolo-[5,4-b]azepine dihydrochloride]	significantly inhibited a decrease in γ-CBF 3 hours after reperfusion	78.22 ± 0.08%	18.0±3.1%	almost completely inhibited the post-ischemia hypoperfusion in γ-CBF	6.5±2.5%	significantly inhibited the increase in water content in the cerebral cortex 3 hours after reperfusion	30 min	transiently increased, with reactive hyperemia to the same extent as that of the control group	–	–	–	–	–	–
C(=Cc1nc2c(s1)NCCCC2)c1ccccc1.O=C(O)C(=O)O [Example 28, 2-Styryl-5,6,7,8-tetrahydro-4H-thiazolo[5,4-b]azepine oxalate]	–	–	–	–	–	–	–	–	95%	56%	9%	1.1	76.6%	7e-07 M
C(C=Cc1nc2c(s1)NCCCC2)=Cc1ccccc1 [Example 21, 2-(4-Phenylbutadienyl)-5,6,7,8-tetrahydro-4H-thiazolo[5,4-b]azepine]	–	–	–	–	–	–	–	–	–	–	–	1.7	63.0%	7e-07 M

— patent publication US5300639A, “Thiazolo [5,4-b]azepine compounds” (Takeda Chemical Industries, Ltd., priority 1992, dated 1994)
